Assays:
[1] = 101 kPa, Liquid
[2] = refractive index (Na D-line) (dimensionless); settings: 293.1 K; 101.33 kPa; Liquid; Standard Abbe refractometry
[3] = xn = mol fraction of the nth substance listed; settings: 101 kPa, Liquid

c1ccccc1 [benzene]
[1]
Settings | mass density [kg/m3]
293.15 K | 878.96
303.15 K | 868.21
313.15 K | 857.4
323.15 K | 846.55
333.15 K | 835.66
343.15 K | 824.71

Settings | refractive index
[2] | 1.5009

CN1CCCC1=O [N-methylpyrrolidone] + CCc1ccccc1
[3], x2 = 0
Settings | mass density [kg/m3]
293.15 K | 1032.66
303.15 K | 1023.42
313.15 K | 1014.27
323.15 K | 1005.62
333.15 K | 996.28
343.15 K | 987.39
353.15 K | 978.62

CCc1ccccc1 [ethylbenzene]
[1]
Settings | mass density [kg/m3]
293.15 K | 867.28
303.15 K | 858.36
313.15 K | 849.38
323.15 K | 840.35
333.15 K | 831.25
343.15 K | 822.11
353.15 K | 812.9

Settings | refractive index
[2] | 1.4962

Cc1ccccc1 [toluene] + CN1CCCC1=O
[3], x1 = 1
Settings | mass density [kg/m3]
293.15 K | 866.8
303.15 K | 857.53
313.15 K | 848.23
323.15 K | 838.91
333.15 K | 829.55
343.15 K | 820.17
353.15 K | 810.77

c1ccccc1 [benzene] + CN1CCCC1=O
[3], x1 = 1
Settings | mass density [kg/m3]
293.15 K | 878.96
303.15 K | 868.21
313.15 K | 857.4
323.15 K | 846.55
333.15 K | 835.66
343.15 K | 824.71

Cc1ccccc1 [toluene]
[1]
Settings | mass density [kg/m3]
293.15 K | 866.8
303.15 K | 857.53
313.15 K | 848.23
323.15 K | 838.91
333.15 K | 829.55
343.15 K | 820.17
353.15 K | 810.77

Settings | refractive index
[2] | 1.4965

CN1CCCC1=O [N-methylpyrrolidone]
[1]
Settings | mass density [kg/m3]
293.15 K | 1032.66
303.15 K | 1023.42
313.15 K | 1014.27
323.15 K | 1005.62
333.15 K | 996.28
343.15 K | 987.39
353.15 K | 978.62

Settings | refractive index
[2] | 1.4677

— the NIST ThermoML archive (doi:10.1016/j.jct.2006.05.006)
